A word on the IC50: it is the point on the concentration scale where inhibition reaches its midpoint. For orientation: EC50 means the concentration at which the effect is half-maximal.

This note sets out measurements from patent US8378117B2 (priority 2005, dated 2013).

Assay [1] concerns the target T1, CB1 receptor (Homo sapiens, UniProt P21554).
T1 construct: expressed in transfected cells
Put plainly: Binding assay for CB1 agonists or inverse agonists (SK-N-MC membranes, [3H]-CP-55,940). The note with it: read-out: CB1 receptor binding percent inhibition, test concentration 0.2 μM (footnote 2). In a few lines: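 Membranes from SK-N-MC cells stably expressing human CB1 incubated with compound and [3H]-CP-55,940 ([…]) for 90 min at 30° C in Tris-HCl pH 7.5, MgCl2, EDTA, fatty-acid-free BSA. Non-specific binding defined with 10 uM WIN 55,212; filtration, scintillation count; IC50 by linear regression.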

Assay [2] has as its target T2, CB2 receptor (Homo sapiens, UniProt P34972).
T2 construct: expressed in transfected cells
Kind of assay: Binding assay for CB2 agonists or inverse agonists (SK-N-MC membranes, [3H]-CP-55,940). The note with it: read-out: CB2 receptor binding percent inhibition, test concentration 0.2 μM (footnote 2). The method in brief: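 Membranes from SK-N-MC cells stably expressing human CB2 were incubated with radioligand and test compounds for 90 min at 30 °C in Tris-HCl buffer, pH 7.5, with MgCl2, EDTA and fatty-acid-free BSA. Filter-bound radioactivity was counted; IC50 was derived by linear regression of percent inhibition.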

The target of assay [3] is T1, CB1 receptor. Put plainly: Modified binding assay, CB1 receptor in CHO cells, [3H]CP 55940. The note with it: [3H]CP 55940 0.5 nM, 120 minutes at 37° C. How it is done: (§1) Additional receptor binding studies were performed with minor modifications as detailed below.
(§2) The human CB1 and CB2 receptors were stably expressed in CHO cells as described in Rinaldi-Carmona, M., Calandra, B., Shire, D., Bouaboula, M., Oustric, D., Barth, F., Casellas, P., Ferrara, P. and Le Fur, G. (1996) J. PharmacoL Exp. Ther., 278: 871-878 and Munro, S., Thomas, K. L. and Abu-Shaar, M. (1993) Nature, 365: 61-65, respectively. [^3H]CP 55940 (0.5 nM) was used as the radioligand for the CB1 receptor binding assay. [^3H]WIN 55212 (0.8 nM) was used as the radioligand for the CB2 receptor binding assay. Incubation was carried out for 120 minutes at 37° C.
(§3) The specific ligand binding to the receptors is defined as the difference between the total binding and the nonspecific binding determined in the presence of an excess of unlabelled ligand. The results are expressed as a percent of control specific binding ((measured specific binding/control specific binding)×100) obtained in the presence of the test compounds.
(§4) The IC50 values (concentration causing a half-maximal inhibition of control specific binding) were determined by non-linear regression analysis of the competition curves generated with mean replicate values using Hill equation curve fitting (where Y=specific binding, D=minimum specific binding, A=maximum specific binding, C=compound concentration, C50=IC50 and nH=slope factor): (Y=D+[(A−D)/(1+(C/C50)^nH)] CB1 and CB2 Receptor Binding Results
(§5) For compounds tested, an IC50 binding value was obtained from percent inhibition studies in which various test concentrations were used.

In assay [4] the target is T2, CB2 receptor. Kind of assay: Modified binding assay, CB2 receptor in CHO cells, [3H]WIN 55212. Conditions: [3H]WIN 55212 0.8 nM, 120 minutes at 37° C. How it is done:
as §1, §2, §3, §4, §5

The target of assay [5] is T1, CB1 receptor. Kind of assay: Modified functional cell-based assay (Beta-Glo luminescence), CB1 receptor. Conditions: CB1 EC50 (Receptor Functional Activity), one sample per compound, Cpd 237 n=3. How it is done:
(§6) Additional functional activity studies were performed with minor modifications. Beta galactosidase activity was quantified using the luminescent Beta-Glo Assay System (Promega Corp. Madison, Wis.) and an Orion Microplate Luminometer (Berthold Detection Systems, Oak Ridge, Tenn.). The EC50 values were calculated using GraphPad Prism and a four parameter logistic equation.
(§7) The functional activity EC50 value for compounds tested (shown in Table 8) were obtained from studies in which varying compound concentrations were used. With the exception of Cpd 237 (n=3), one sample for each compound was tested.

Assay [6] addresses T2, CB2 receptor. Put plainly: Modified functional cell-based assay (Beta-Glo luminescence), CB2 receptor. Conditions: CB2 EC50 (Receptor Functional Activity), one sample per compound, Cpd 237 n=3. How it is done:
as §6, §7

Structures are written as SMILES. Where only a bound is given, the exact number is not on record here.

T1 sequence (P21554 whole entry): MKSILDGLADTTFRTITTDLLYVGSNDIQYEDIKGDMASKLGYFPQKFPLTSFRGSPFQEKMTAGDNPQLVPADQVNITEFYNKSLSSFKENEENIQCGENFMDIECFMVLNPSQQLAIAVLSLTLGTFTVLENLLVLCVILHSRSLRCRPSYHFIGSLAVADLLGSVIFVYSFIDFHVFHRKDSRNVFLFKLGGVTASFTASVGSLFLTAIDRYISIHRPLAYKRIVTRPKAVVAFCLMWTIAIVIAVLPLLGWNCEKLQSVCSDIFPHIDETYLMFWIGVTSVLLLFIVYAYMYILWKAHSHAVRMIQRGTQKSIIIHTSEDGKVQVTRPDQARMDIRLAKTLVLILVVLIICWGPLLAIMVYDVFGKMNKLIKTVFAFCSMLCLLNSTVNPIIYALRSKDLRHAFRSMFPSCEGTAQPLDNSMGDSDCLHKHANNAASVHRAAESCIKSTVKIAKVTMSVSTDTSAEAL
T2 sequence (P34972 whole entry): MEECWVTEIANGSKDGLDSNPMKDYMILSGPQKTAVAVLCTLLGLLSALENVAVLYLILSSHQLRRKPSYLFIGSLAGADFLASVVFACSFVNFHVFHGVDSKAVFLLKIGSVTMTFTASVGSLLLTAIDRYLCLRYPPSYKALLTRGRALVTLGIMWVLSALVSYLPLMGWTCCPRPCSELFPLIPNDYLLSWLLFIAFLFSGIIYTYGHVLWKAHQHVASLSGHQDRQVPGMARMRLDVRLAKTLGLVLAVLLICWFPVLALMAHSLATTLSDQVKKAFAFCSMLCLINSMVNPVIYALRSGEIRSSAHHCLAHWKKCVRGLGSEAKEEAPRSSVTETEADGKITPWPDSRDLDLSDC

With `O=C(N[C@H](CO)c1ccccc1)c1n[nH]c2c1CCCCC2Cc1cccc(Cl)c1` (stereo partly drawn) [Cpd 164, 8-(3-chloro-benzyl)-1,4,5,6,7,8-hexahydro-cycloheptapyrazole-3-carboxylic acid [(1S)-2-hydroxy-1-phenyl-ethyl]-amide], the inhibition at 0.2 µM at CB1 receptor [1] was 26%; at CB2 receptor [2], 94%. The half-maximal inhibitory concentration (IC50) at CB1 receptor [3] was determined as 870 nM; at CB2 receptor [4], 230 nM. Moreover, the EC50 was greater than 1000 nM on CB1 receptor [5] and 25 nM at CB2 receptor [6].
